Measured values taken from patent US9617602B2, “Methods and compositions for determining resistance to androgen receptor therapy” (Aragon Pharmaceuticals, Inc., priority 2012, dated 2017).

Tests used:
Type in all cases: cell-based, human
[1] = system: Class 2 resistant cell lines; assay: Transcriptional reporter assay (probasin-luciferase); details: for Agonist Transcriptional Reporter Assay (% Max Activity) / Antagonist Transcriptional Reporter Assay (% Max Activity): Class 2; for Agonist Transcriptional Reporter Assay (% Max Activity): [Antagonists] = 50 μM; for Antagonist Transcriptional Reporter Assay (% Max Activity): [Antagonists] = 50 μM in presence of R1881
Procedure: (§1) With the exception of the LNCaP/AR(cs)-Luc cells that contain an integrated androgen responsive reporter, cells were transiently transfected using Lipofectin® (Life Technologies) according to the manufacturer's protocol. […] Following transfection, the cells were incubated for 4 hours.
(§2) Following 48 hour incubation the medium was removed and the cells were lysed in 40 μL of lysis buffer (25 mM Tris Phosphate, 2 mM CDTA, 10% Glycerol, 0.5% Triton X-100, 2 mM DTT).

[2] = system: Class 2 MDV3100- and ARN-509-resistant cell lines; assay: Proliferation assay (CellTiter-Glo), agonist and antagonist mode; details: for Antagonism of androgen dependent growth of Class 2 resistant lines: antagonist mode
LNCaP cells [3] = assay: Transcriptional reporter assay (probasin-luciferase); details: for Agonist Transcriptional Reporter Assay (% Max Activity): [Antagonists] = 50 μM; for Antagonist Transcriptional Reporter Assay (% Max Activity): [Antagonists] = 50 μM in presence of R1881
Procedure: as §1, §2

LNCaP ARN-509r1 cells = assay: Endogenous gene transcriptional assay (real-time PCR of androgen responsive genes); details: 1 nM R1881 or 30 μM compound, vehicle=1.00
Procedure: (§3) Total RNA was isolated using the Aurum™ total RNA isolation kit (BIO-RAD, Hercules, Calif.). RNA (1 μg) was reverse transcribed using the iScript cDNA synthesis kit (BIO-RAD, Hercules, Calif.) to produce cDNA. Real-time PCR was performed using the Applied Biosystems 7900HT instrument and SYBR Green PCR Master Mix (Applied Biosystems, Foster City, Calif.). PCR reactions were performed in 6 μL according to the manufacturer's protocol and a thermocycle protocol of 95° C. for 10 minutes followed by 40 cycles of 95° C. for 15 seconds and 58° C. for 1 minute. Androgen responsive gene (PSA, SLUG, TMPRSS2, STEAP4, FKBP5, ORM1, NOV, FASN, NKX3.1, AMIGO2, BDNF, CAMK2N1, HPGD, NCAPD3, PLD1) expression was normalized to GAPDH expression and expressed relative to vehicle treatment of the parental cell line.
(§4) Gene expression was normalized to GAPDH as described above.

LNCaP/AR-Luc cells = assay: as above; details: 1 nM R1881 or 30 μM compound, vehicle=1.00
Procedure: as §3, §4

LNCaP cells [4] = assay: as above; details: 1 nM R1881 or 30 μM compound, vehicle=1.00
Procedure: as §3, §4

LNCaP/AR(cs) cells = assay: Transcriptional reporter assay (probasin-luciferase); details: for Agonist Transcriptional Reporter Assay (% Max Activity): [Antagonists] = 50 μM; for Antagonist Transcriptional Reporter Assay (% Max Activity): [Antagonists] = 50 μM in presence of R1881
Procedure: as §1, §2

[5] = system: Class 1 resistant cell lines; assay: as above; details: for Agonist Transcriptional Reporter Assay (% Max Activity) / Antagonist Transcriptional Reporter Assay (% Max Activity): Class 1; for Agonist Transcriptional Reporter Assay (% Max Activity): [Antagonists] = 50 μM; for Antagonist Transcriptional Reporter Assay (% Max Activity): [Antagonists] = 50 μM in presence of R1881; for Antagonist activity in probasin-luciferase reporter, Class 1 resistant cells: decrease in luciferase activity relative to no treatment controls
Procedure: as §1, §2

## CNC(=O)c1ccc(N2C(=S)N(c3cnc(C#N)c(C(F)(F)F)c3)C(=O)C23CCC3)cc1F [ARN-509]
[1]
  Agonist activity in probasin-luciferase reporter assay, Class 2 resistant cells: no agonist activity
  Agonist Transcriptional Reporter Assay (% Max Activity): + (‘+’ = <5)
  Antagonist Transcriptional Reporter Assay (% Max Activity): + (‘+’ = <5)
[2]; Class 2, [Antagonists] = 10 μM, 7 days
  Agonist Proliferation Assay (% Viability): ++ (‘++’ = >30)
[2]; Homo sapiens, 168 h, read-out: Antagonist Proliferation Assay (% Viability)
  viability at 0.0001 µM: > 30%
[2]; agonist mode
  Stimulation of proliferation in Class 2 cell lines: can stimulate proliferation
[2]
  Antagonism of androgen dependent growth of Class 2 resistant lines: only partially antagonized
LNCaP cells [3]
  Agonist Transcriptional Reporter Assay (% Max Activity): + (‘+’ = <5)
  Antagonist Transcriptional Reporter Assay (% Max Activity): + (‘+’ = <5)
LNCaP ARN-509r1 cells
  AMIGO2 gene expression: 0.62
  BDNF gene expression: 0.90
  CAM2KN1 gene expression: 0.37
  FASN gene expression: 1.04
  FKBP5 gene expression: 2.58
  HPGD gene expression: 2.36
  NCAPD3 gene expression: 1.29
  NKX3.1 gene expression: 6.54
  NOV gene expression: 1.40
  ORM1 gene expression: 15.89
  PLD1 gene expression: 0.33
  PSA gene expression: 32.67
  SLUG gene expression: 4.66
  STEAP4 gene expression: 3.03
  TMPRSS2 gene expression: 10.20
LNCaP/AR-Luc cells
  AMIGO2 gene expression: 1.13
  BDNF gene expression: 1.17
  CAM2KN1 gene expression: 1.13
  FASN gene expression: 1.08
  FKBP5 gene expression: 1.16
  HPGD gene expression: 1.88
  NKX3.1 gene expression: 1.14
  NOV gene expression: 2.55
  ORM1 gene expression: 1.27
  PLD1 gene expression: 1.45
  PSA gene expression: 0.60
  SLUG gene expression: 1.13
  STEAP4 gene expression: 0.88
  TMPRSS2 gene expression: 0.74
LNCaP cells [4]
  AMIGO2 gene expression: 1.12
  BDNF gene expression: 1.09
  CAM2KN1 gene expression: 1.17
  FASN gene expression: 1.34
  FKBP5 gene expression: 0.99
  HPGD gene expression: 1.48
  NKX3.1 gene expression: 0.90
  NOV gene expression: 1.73
  ORM1 gene expression: 0.71
  PLD1 gene expression: 1.09
  PSA gene expression: 0.66
  SLUG gene expression: 1.27
  STEAP4 gene expression: 0.78
  TMPRSS2 gene expression: 0.77
LNCaP/AR(cs) cells
  Agonist Transcriptional Reporter Assay (% Max Activity): + (‘+’ = <5)
  Antagonist Transcriptional Reporter Assay (% Max Activity): + (‘+’ = <5)
[5]
  Agonist Transcriptional Reporter Assay (% Max Activity): + (‘+’ = <5)
  Antagonist Transcriptional Reporter Assay (% Max Activity): ++ (‘++’ = >5)
  Antagonist activity in probasin-luciferase reporter, Class 1 resistant cells: effective antagonists

## CNC(=O)c1ccc(N2C(=S)N(c3ccc(C#N)c(C(F)(F)F)c3)C(=O)C2(C)C)cc1F [Enzalutamide, enzalutamide]
[1]
  Agonist activity in probasin-luciferase reporter assay, Class 2 resistant cells: weak partial agonist
  Agonist Transcriptional Reporter Assay (% Max Activity): ++ (‘++’ = >5)
  Antagonist Transcriptional Reporter Assay (% Max Activity): ++ (‘++’ = >5)
[2]
  Antagonism of androgen dependent growth of Class 2 resistant lines: only partially antagonized
LNCaP cells [3]
  Agonist Transcriptional Reporter Assay (% Max Activity): + (‘+’ = <5)
  Antagonist Transcriptional Reporter Assay (% Max Activity): + (‘+’ = <5)
LNCaP ARN-509r1 cells
  AMIGO2 gene expression: 0.99
  CAM2KN1 gene expression: 0.59
  FASN gene expression: 1.53
  FKBP5 gene expression: 9.45
  HPGD gene expression: 10.20
  NCAPD3 gene expression: 3.12
  NOV gene expression: 1.39
  ORM1 gene expression: 205.07
  PLD1 gene expression: 0.24
  PSA gene expression: 57.68
  SLUG gene expression: 42.52
  STEAP4 gene expression: 32.22
  TMPRSS2 gene expression: 23.75
LNCaP/AR-Luc cells
  AMIGO2 gene expression: 1.44
  BDNF gene expression: 1.08
  CAM2KN1 gene expression: 1.51
  FASN gene expression: 1.40
  FKBP5 gene expression: 1.46
  HPGD gene expression: 2.51
  NCAPD3 gene expression: 1.33
  NKX3.1 gene expression: 1.68
  ORM1 gene expression: 1.39
  PLD1 gene expression: 1.33
  PSA gene expression: 0.44
  SLUG gene expression: 2.73
  STEAP4 gene expression: 1.23
  TMPRSS2 gene expression: 1.35
LNCaP cells [4]
  AMIGO2 gene expression: 1.20
  BDNF gene expression: 0.85
  CAM2KN1 gene expression: 1.39
  FASN gene expression: 1.24
  HPGD gene expression: 1.78
  NCAPD3 gene expression: 1.20
  NKX3.1 gene expression: 1.66
  NOV gene expression: 2.57
  PLD1 gene expression: 0.70
  PSA gene expression: 1.69
  SLUG gene expression: 2.35
  TMPRSS2 gene expression: 1.68
LNCaP/AR(cs) cells
  Agonist Transcriptional Reporter Assay (% Max Activity): + (‘+’ = <5)
  Antagonist Transcriptional Reporter Assay (% Max Activity): + (‘+’ = <5)
[5]
  Agonist Transcriptional Reporter Assay (% Max Activity): + (‘+’ = <5)
  Antagonist Transcriptional Reporter Assay (% Max Activity): + (‘+’ = <5)
  Antagonist activity in probasin-luciferase reporter, Class 1 resistant cells: effective antagonists
